Paper PMC5364125 (EJNMMI Research, 2017)
Where “and” joins values, the source holds several entries; their conditions need not be identical. Equal values may be shown once. Read-outs that look alike come from different tables or passages of the source.

What was measured:
[1] = estimated from murine distribution data; cited from earlier work
TSPO [2] = system: TSPO; design: method as in PMID 25616581; conditions: 6-hydroxydopamine-injured striatum; cited from earlier work
TSPO [3] = system: TSPO; design: method as in PMID 25771904; conditions: herpes encephalitis rat model; cited from earlier work
[4] = Source text: The protocol for investigating radiation dosimetry in human subjects using whole-body imaging was essentially the same as that reported previously.
Whole-body PET/CT scans were obtained using a Discovery 710 PET/CT scanner (GE Healthcare) in 3D mode. LD-CT was used for attenuation correction of the PET emission scan. […] Then, 128-min scans (18 frames, 13 bed positions per frame, overlap of 23 of 47 slices per bed, 15 s/bed × four frames, 30 s/bed × 12 frames, and 60 s/bed × two frames) from the top of the head to mid-thigh were performed. Images were reconstructed using a 3D-ordered subset expectation maximization algorithm (subset, 24; iteration, 2) with a 6.4-mm Gaussian filter.
ROIs were manually placed over […] that could be identified on PET or LD-CT: adrenals, brain, gallbladder, small intestine, stomach, heart wall, kidneys, liver, lungs, pancreas, bone marrow (thoracic and lumbar vertebrae), spleen, testes, thymus, thyroid, and urinary bladder. The decay-uncorrected and decay-corrected TACs of organs were calculated as the percent injected dose (%ID) per milliliter and the %ID per organ. The volume of bone marrow, in which only part of the organ could be measured, was substituted by the volume that was calculated from the mass of red marrow in the adult male phantom (1.12 kg for 73.7 kg of body weight) adjusted by the subject’s body weight and 1.04 g/mL as the specific gravity. The normalized number of disintegrations (MBq-h/MBq administered) for each source organ is equal to the area under the time course of decay-uncorrected curve (%ID/mL) multiplied by the volume of the organ ROI. The area under the time course curve was calculated by summing the area from time zero to the endpoint of the scan and the area from the endpoint of the scan to infinity. The former area was calculated by trapezoidal integration. The latter area was calculated by integration of radioactive decay from the endpoint.
The absorbed doses in 25 target organs of the adult male phantom were estimated from the normalized number of disintegrations of source organs by implementing the Medical Internal Radiation Dose method using OLINDA/EXM (Vanderbilt University). The effective dose was also calculated by OLINDA/EXM using the methodology described in International Commission on Radiological Protection Publication 60 [40].

TSPO [5] = test: Dynamic brain PET, V T by two-tissue compartment model; type: in vivo, human
Description: (§1) PET scanning was performed using a Discovery PET/computed tomography (CT) 710 scanner (GE Healthcare, Milwaukee, WI) in 3D mode. This scanner has an axial field of view of 15.7 cm, a spatial resolution of 4.5 mm full width at half maximum (FWHM), and a Z-axis resolution of 4.8 mm FWHM. We acquired 47 slices. […] Arterial blood (0.5 mL each) was sampled at 10, 20, 30, 40, 50, 60, 70, 80, 90, 100, 110, 120, 135, 150, and 180 s, as well as at 5, 7, 10, 15, 20, 30, 40, 50, 60, 75, and 90 min. The whole blood and separated plasma were weighed, and radioactivity was measured with a NaI (Tl) well scintillation counter (BeWell Model-QS03 F/B; Molecular Imaging Labo, Suita, Japan). To analyze the labeled metabolites, 1.5 mL additional blood was obtained at 3, 10, 20, 30, 40, and 60 min. After the PET scan, urine was obtained from each subject, and radioactivity was measured.
The dynamic images were post-smoothed with a 4-mm FWHM Gaussian filter. The data were reconstructed in 128 × 128 × 47 voxels, and the voxel size was 2 × 2 × 3.27 mm. Partially overlapping circular regions of interests (ROIs) that were 10 mm in diameter were placed on the frontal, temporal, parietal, occipital, and cerebellar cortices, thalamus, putamen, and head of the caudate nucleus with reference to the co-registered MRI. TACs for these ROIs were calculated as becquerel per milliliter or as standardized uptake value (SUV): (activity/ml tissue)/(injected activity/g body weight). […] The goodness of fit by the two-model analysis was evaluated using AIC.

[6] = HPLC metabolite analysis of plasma and urine; type: in vivo, human
Description: as §1

[7] = two-tissue compartment model, typical subjects n = 4

Compound: CCCN(CCC)C(=O)Cc1c(-c2ccc(O[11CH3])cc2)nc2c(Cl)cc(Cl)cn12 [[^11C]CB184, N,N-di-n-propyl-2-[2-(4-[^11C]methoxyphenyl)-6,8-dichloroimidazol[1,2-a]pyridine-3-yl]acetamide]
- organ with highest radiation-absorbed dose [1]: highest in the lung
- regional uptake into inflamed areas compared with (R)-[^11C]PK11195 (TSPO [2]): comparable
- regional uptake into inflamed areas compared with (R)-[^11C]PK11195 (TSPO [3]): higher
- radioactivity voided into urine, of the injected activity ([4]; at 132 ± 0 min, n = 3): 0.3% ± 0
- lungs radioactivity, initial time point ([4]; at 3.3 min, one subject): 25 %ID
- lungs uptake ([4]; first frame): 25 % injected activity
- Absorbed dose, Adrenals ([4]; healthy male subjects n = 3): 4.6 ± 0.9 μGy/MBq
- Absorbed dose, Brain ([4]; healthy male subjects n = 3): 4.0 ± 0.3 μGy/MBq
- Absorbed dose, Breasts ([4]; healthy male subjects n = 3): 2.2 ± 0.0 μGy/MBq
- Absorbed dose, Gallbladder wall ([4]; healthy male subjects n = 3): 5.4 ± 0.4 μGy/MBq
- Absorbed dose, Heart wall ([4]; healthy male subjects n = 3): 12.8 ± 0.5 μGy/MBq
- Absorbed dose, Kidneys ([4]; healthy male subjects n = 3): 21.0 ± 0.5 μGy/MBq
- Absorbed dose, Liver ([4]; healthy male subjects n = 3): 8.3 ± 0.9 μGy/MBq
- Absorbed dose, Lower large intestine wall ([4]; healthy male subjects n = 3): 2.3 ± 0.1 μGy/MBq
- Absorbed dose, Lungs ([4]; healthy male subjects n = 3): 16.8 ± 2.7 μGy/MBq
- Absorbed dose, Muscle ([4]; healthy male subjects n = 3): 2.2 ± 0.1 μGy/MBq
- Absorbed dose, Osteogenic cells ([4]; healthy male subjects n = 3): 3.6 ± 0.1 μGy/MBq
- Absorbed dose, Ovaries ([4]; healthy male subjects n = 3): 2.5 ± 0.1 μGy/MBq
- Absorbed dose, Pancreas ([4]; healthy male subjects n = 3): 16.5 ± 2.2 μGy/MBq
- Absorbed dose, Red marrow ([4]; healthy male subjects n = 3): 3.2 ± 0.1 μGy/MBq
- Absorbed dose, Skin ([4]; healthy male subjects n = 3): 1.7 ± 0.1 μGy/MBq
- Absorbed dose, Small intestine ([4]; healthy male subjects n = 3): 5.4 ± 0.9 μGy/MBq
- Absorbed dose, Spleen ([4]; healthy male subjects n = 3): 16.6 ± 6.6 μGy/MBq
- Absorbed dose, Stomach wall ([4]; healthy male subjects n = 3): 4.5 ± 0.9 μGy/MBq
- Absorbed dose, Testes ([4]; healthy male subjects n = 3): 3.6 ± 0.7 μGy/MBq
- Absorbed dose, Thymus ([4]; healthy male subjects n = 3): 2.1 ± 0.0 μGy/MBq
- Absorbed dose, Thyroid ([4]; healthy male subjects n = 3): 12.0 ± 3.9 μGy/MBq
- Absorbed dose, Total body ([4]; healthy male subjects n = 3): 2.8 ± 0.0 μGy/MBq
- Absorbed dose, Upper large intestine wall ([4]; healthy male subjects n = 3): 2.8 ± 0.1 μGy/MBq
- Absorbed dose, Urinary bladder wall ([4]; healthy male subjects n = 3): 2.1 ± 0.1 μGy/MBq
- Absorbed dose, Uterus ([4]; healthy male subjects n = 3): 2.5 ± 0.1 μGy/MBq
- Effective dose ([4]; healthy male subjects n = 3): 5.9 ± 0.6 μSv/MBq
- lungs uptake ([4]; last frame): 4.2 % injected activity
- Normalized number of disintegrations, Adrenals ([4]; mean ± SD, n = 3): 1.3E-04 ± 5.7E-05 (9.5E-05 – 2.0E-04) MBq-h/MBq administered
- Normalized number of disintegrations, Brain ([4]; mean ± SD, n = 3): 1.6E-02 ± 1.3E-03 (1.5E-02 – 1.7E-02) MBq-h/MBq administered
- Normalized number of disintegrations, Gallbladder contents ([4]; mean ± SD, n = 3): 8.6E-04 ± 2.3E-04 (7.1E-04 – 1.1E-03) MBq-h/MBq administered
- Normalized number of disintegrations, Heart wall ([4]; mean ± SD, n = 3): 1.3E-02 ± 6.2E-04 (1.3E-02 – 1.4E-02) MBq-h/MBq administered
- Normalized number of disintegrations, Kidneys ([4]; mean ± SD, n = 3): 2.2E-02 ± 4.7E-04 (2.2E-02 – 2.2E-02) MBq-h/MBq administered
- Normalized number of disintegrations, Liver ([4]; mean ± SD, n = 3): 4.2E-02 ± 5.4E-03 (3.8E-02 – 4.8E-02) MBq-h/MBq administered
- Normalized number of disintegrations, Lungs ([4]; mean ± SD, n = 3): 6.2E-02 ± 1.1E-02 (5.1E-02 – 7.2E-02) MBq-h/MBq administered
- Normalized number of disintegrations, Pancreas ([4]; mean ± SD, n = 3): 5.2E-03 ± 7.6E-04 (4.5E-03 – 6.0E-03) MBq-h/MBq administered
- Normalized number of disintegrations, Red marrow ([4]; mean ± SD, n = 3): 1.0E-02 ± 1.7E-03 (8.8E-03 – 1.2E-02) MBq-h/MBq administered
- Normalized number of disintegrations, Remainder ([4]; mean ± SD, n = 3): 2.9E-01 ± 2.0E-02 (2.8E-01 – 3.2E-01) MBq-h/MBq administered
- Normalized number of disintegrations, Small intestine ([4]; mean ± SD, n = 3): 1.0E-02 ± 2.9E-03 (6.9E-03 – 1.3E-02) MBq-h/MBq administered
- Normalized number of disintegrations, Spleen ([4]; mean ± SD, n = 3): 1.0E-02 ± 4.5E-03 (4.9E-03 – 1.3E-02) MBq-h/MBq administered
- Normalized number of disintegrations, Stomach ([4]; mean ± SD, n = 3): 3.2E-03 ± 1.7E-03 (2.1E-03 – 5.2E-03) MBq-h/MBq administered
- Normalized number of disintegrations, Testes ([4]; mean ± SD, n = 3): 4.3E-04 ± 1.1E-04 (3.1E-04 – 5.0E-04) MBq-h/MBq administered
- Normalized number of disintegrations, Thymus ([4]; mean ± SD, n = 3): 3.8E-05 ± 1.8E-06 (3.7E-05 – 4.1E-05) MBq-h/MBq administered
- Normalized number of disintegrations, Thyroid ([4]; mean ± SD, n = 3): 9.4E-04 ± 3.4E-04 (6.3E-04 – 1.3E-03) MBq-h/MBq administered
- Normalized number of disintegrations, Urinary bladder contents ([4]; mean ± SD, n = 3): 9.8E-05 ± 3.7E-05 (5.5E-05 – 1.2E-04) MBq-h/MBq administered
- time of peak radioactivity in liver ([4]; whole-body PET): 20 min
- time of peak radioactivity in all gray matter regions (TSPO [5]; after intravenous injection, typical subjects n = 4): about 5 min
- V T values relative to those of (R)-[^11C]PK11195 (TSPO [5]; comparison with ref 15 values): 10 times
- V T caudate (TSPO [5]; [7]): 3.2 ± 0.1 mL/cm^3
- V T cerebellum (TSPO [5]; [7]): 4.4 ± 0.2 mL/cm^3
- V T frontal cortex (TSPO [5]; [7]): 4.0 ± 0.2 mL/cm^3
- V T occipital cortex (TSPO [5]; [7]): 4.3 ± 0.2 mL/cm^3 and 4.3 ± 0.5 mL/cm^3
- V T parietal cortex (TSPO [5]; [7]): 3.9 ± 0.3 mL/cm^3
- V T putamen (TSPO [5]; [7]): 4.0 ± 0.2 mL/cm^3
- V T temporal cortex (TSPO [5]; [7]): 3.9 ± 0.4 mL/cm^3
- V T thalamus (TSPO [5]; [7]): 5.1 ± 0.4 mL/cm^3
- Percentage of radioactivity in plasma ([6]; 3 min after intravenous injection of [^11C]CB184, n = 5): 96.1 ± 2.7%
- Percentage of radioactivity in plasma ([6]; 10 min after intravenous injection of [^11C]CB184, n = 5): 83.8 ± 8.9%
- Percentage of radioactivity in plasma ([6]; 20 min after intravenous injection of [^11C]CB184, n = 5): 61.6 ± 8.0%
- Percentage of radioactivity in plasma ([6]; 30 min after intravenous injection of [^11C]CB184, n = 5): 52.9 ± 4.9%
- Percentage of radioactivity in plasma ([6]; 40 min after intravenous injection of [^11C]CB184, n = 5): 47.0 ± 5.0%
- parent radioligand in voided urine ([6]; HPLC of voided urine): not detected
- broad hydrophilic metabolites in urine ([6]; HPLC of voided urine, n = 3): 99.4% ± 0.6
- total injected radioactivity recovered in urine ([6]; approximately 100 min post-injection): 0.3%
- radioactivity voided into urine, of the injected activity ([6]; at 111 ± 17 min, n = 8): 0.3% ± 0.0
